The target of one test is T1, RET(KD: 658-1114 G810R) (Homo sapiens, UniProt P07949, G810R).
T1 construct: 658-1114; expressed in transfected cells; host or cells: 293T.165 (293T cells, generated in-house)
T1 sequence (P07949 658-1114 G810R): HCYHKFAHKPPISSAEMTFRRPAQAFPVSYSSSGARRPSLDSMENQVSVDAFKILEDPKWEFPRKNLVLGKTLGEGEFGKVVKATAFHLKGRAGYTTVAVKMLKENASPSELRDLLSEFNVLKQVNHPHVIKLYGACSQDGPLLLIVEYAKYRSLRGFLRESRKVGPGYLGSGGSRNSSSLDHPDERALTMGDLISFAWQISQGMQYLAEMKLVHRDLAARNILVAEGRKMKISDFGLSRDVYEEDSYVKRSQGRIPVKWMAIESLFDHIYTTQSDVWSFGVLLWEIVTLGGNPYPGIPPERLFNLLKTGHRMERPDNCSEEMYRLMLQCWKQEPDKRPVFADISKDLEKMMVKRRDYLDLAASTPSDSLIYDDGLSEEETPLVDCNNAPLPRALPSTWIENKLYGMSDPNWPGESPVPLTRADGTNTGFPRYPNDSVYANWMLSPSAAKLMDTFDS
Description: HiBiT-Degradation, RET G810R degradation assay (Nano-Glo HiBiT Lytic), 293T.165 cells. In kind it is cell-based. To be noted: for Emax / DC50: 6.0 hours; for Emax: % remaining protein, read-out: 293T.165 RET(KD: 658-1114 G810R) 6.0 hours (Emax); for DC50: read-out: 293T.165 RET(KD: 658-1114 G810R) 6.0 hours (DC50). In a few lines:
(§1)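 HEK293T lines expressing HiBiT-tagged RET kinase domain, wild-type (293T.144) or G810R (293T.165), treated 6 h in duplicate, 11-point half-log series from 10 μM top. Lytic HiBiT luminescence read; DC50 and Emax (% protein remaining) from dose-response curves.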

A further test deals with T2, RET (658-1114) (Homo sapiens, UniProt P07949).
T2 construct: 658-1114; expressed in transfected cells; host or cells: 293T.144 (293T cells, generated in-house)
T2 sequence (P07949 658-1114): T1 sequence (P07949 658-1114 G810R) with R153G
Description: HiBiT-Degradation, RET wild-type degradation assay (Nano-Glo HiBiT Lytic), 293T.144 cells. In kind it is cell-based. Conditions: HiBiT-Degradation; for DC50 / Emax: 6.0 hours; for DC50: read-out: 293T.144 RET (658-1114) 6.0 hours (DC50); for Emax: read-out: 293T.144 RET (658-1114) 6.0 hours (Emax). An outline of the steps: as §1
A general note: The HiBiT peptide binds its large partner to form an active luciferase.

[1] abbreviates: half-maximal degradation concentration.

Molecules are shown by their SMILES. Changes are numbered by the printed parent chain. Read-outs that look alike come from different tables or passages of the source.

In general, Emax refers to the size of the effect at its maximum, as opposed to the concentration needed. One may read the DC50 as the concentration at which degradation of the target reaches its halfway point. Consider `CC(C)NC(=O)C1(C)CCN(c2ccc(-c3cc(-c4ccc(N5CCN(C(=O)CN6CCC(c7ccc(NC8CCC(=O)NC8=O)cc7F)CC6)CC5)cc4)cn4ncc(C#N)c34)cn2)CC1` (stereo not shown) [Compound 45, 1-[5-[3-cyano-6-[4-[4-[2-[4-[4-[(2,6-dioxo-3-piperidyl)amino]-2-fluoro-phenyl]-1-piperidyl]acetyl]piperazin-1-yl]phenyl]pyrazolo[1,5-a]pyridin-4-yl]-2-pyridyl]-N-isopropyl-4-methyl-piperidine-4-carboxamide], for which the maximal response (Emax) on RET(KD: 658-1114 G810R) is below 30%. For the same compound, the 50% degradation concentration (DC50) on RET(KD: 658-1114 G810R) (setting [1]) is below 0.1 µM. Also, on RET(KD: 658-1114 G810R) (HiBiT-Degradation), the “293T.165 RET(KD: 658-1114 G810R) 6.0 hours (Emax)” value was “++++ (< 30% = ++++)”, the “293T.165 RET(KD: 658-1114 G810R) 6.0 hours (IP) [nM]” value is “++++ (< 50 nM = ++++)” and the half-maximal degradation concentration (DC50) is below 0.1 µM. Further, at RET (658-1114), the “293T.144 RET (658-1114) 6.0 hours (IP) [nM]” value (shortened to “293T.144 RET”) is on record as “++++ (< 50 nM = ++++)”, the DC50 is below 0.05 µM and the Emax was below 30%.
For the compound `N#Cc1cnn2cc(-c3cnn(C4CCN(C(=O)CN5CCC(c6ccc(NC7CCC(=O)NC7=O)cc6F)CC5)CC4)c3)cc(-c3ccc(N4CCC(Nc5ccccc5)CC4)nc3)c12` (stereo not shown) [Compound 46, 4-[6-(4-anilino-1-piperidyl)-3-pyridyl]-6-[1-[1-[2-[4-[4-[(2,6-dioxo-3-piperidyl)amino]-2-fluoro-phenyl]-1-piperidyl]acetyl]-4-piperidyl]pyrazol-4-yl]pyrazolo[1,5-a]pyridine-3-carbonitrile], the Emax on RET(KD: 658-1114 G810R) was below 50%. Further, the DC50 on RET(KD: 658-1114 G810R) (setting [1]) was below 0.1 µM. On RET(KD: 658-1114 G810R) (HiBiT-Degradation), the “293T.165 RET(KD: 658-1114 G810R) 6.0 hours (Emax)” value was “+++ (<50% = +++)”, the “293T.165 RET(KD: 658-1114 G810R) 6.0 hours (IP) [nM]” value is recorded as “++++ (< 50 nM = ++++)” and the 50% degradation concentration (DC50) is below 0.1 µM. Besides, at RET (658-1114), the “293T.144 RET” value was “++++ (< 50 nM = ++++)”, the DC50 is below 0.05 µM and the maximal effect (Emax) is below 30%.
As to `CC(C)NC(=O)C1(C)CCN(c2ccc(-c3cc(-c4ccc(N5CCN(C(=O)CN6CCC(c7ccc(OC8CCC(=O)NC8=O)cc7)CC6)CC5)cc4)cn4ncc(C#N)c34)cn2)CC1` (stereo not shown) [Compound 48, 1-[5-[3-cyano-6-[4-[4-[2-[4-[4-[(2,6-dioxo-3-piperidyl)oxy]phenyl]-1-piperidyl]acetyl]piperazin-1-yl]phenyl]pyrazolo[1,5-a]pyridin-4-yl]-2-pyridyl]-N-isopropyl-4-methyl-piperidine-4-carboxamide], at RET(KD: 658-1114 G810R), the maximum response (Emax) was below 30%. Also, on RET(KD: 658-1114 G810R) (setting [1]), the DC50 is below 0.1 µM. Moreover, on RET(KD: 658-1114 G810R) (HiBiT-Degradation), the “293T.165 RET(KD: 658-1114 G810R) 6.0 hours (Emax)” value is reported as “++++ (< 30% = ++++)”, the “293T.165 RET(KD: 658-1114 G810R) 6.0 hours (IP) [nM]” value is listed as “++++ (< 50 nM = ++++)” and the DC50 is below 0.1 µM. For the same compound, on RET (658-1114), the “293T.144 RET” value is recorded as “++++ (< 50 nM = ++++)”, the DC50 was below 0.05 µM and the Emax is below 30%.
For the compound `N#Cc1cnn2cc(-c3ccc(N4CCN(C(=O)CC5(O)CCN(c6ccc(NC7CCC(=O)NC7=O)cc6)CC5)CC4)cc3)cc(-c3ccc(N4CCN(C(=O)Cc5ccc(F)cn5)CC4)nc3)c12` (stereo not shown) [Compound 49, 6-[4-[4-[2-[1-[4-[(2,6-dioxo-3-piperidyl)amino]phenyl]-4-hydroxy-4-piperidyl]acetyl]piperazin-1-yl]phenyl]-4-[6-[4-[2-(5-fluoro-2-pyridyl)acetyl]piperazin-1-yl]-3-pyridyl]pyrazolo[1,5-a]pyridine-3-carbonitrile], at RET(KD: 658-1114 G810R), the Emax is below 50%. Moreover, the half-maximal degradation concentration (DC50) at RET(KD: 658-1114 G810R) (setting [1]) is below 0.1 µM. For the same compound, at RET(KD: 658-1114 G810R) (HiBiT-Degradation), the “293T.165 RET(KD: 658-1114 G810R) 6.0 hours (Emax)” value is reported as “+++ (<50% = +++)”, the “293T.165 RET(KD: 658-1114 G810R) 6.0 hours (IP) [nM]” value is “++++ (< 50 nM = ++++)” and the DC50 is below 0.1 µM. On RET (658-1114), the “293T.144 RET” value is “++++ (< 50 nM = ++++)”, the half-maximal degradation concentration (DC50) was below 0.05 µM and the maximum response (Emax) is below 30%.
In the case of `CC(C)NC(=O)C1(C)CCN(c2ccc(-c3cc(-c4ccc(N5CCN(C(=O)CN6CCC(c7ccc(NC8CCC(=O)NC8=O)cc7F)CC6)CC5)cc4)cn4ncc(C#N)c34)cc2)CC1` (stereo not shown) [Compound 50, 1-[4-[3-cyano-6-[4-[4-[2-[4-[4-[(2,6-dioxo-3-piperidyl)amino]-2-fluoro-phenyl]-1-piperidyl]acetyl]piperazin-1-yl]phenyl]pyrazolo[1,5-a]pyridin-4-yl]phenyl]-N-isopropyl-4-methyl-piperidine-4-carboxamide], the maximal effect (Emax) at RET(KD: 658-1114 G810R) was below 30%. The 50% degradation concentration (DC50) at RET(KD: 658-1114 G810R) (setting [1]) is below 0.1 µM. Besides, at RET(KD: 658-1114 G810R) (HiBiT-Degradation), the “293T.165 RET(KD: 658-1114 G810R) 6.0 hours (Emax)” value is “++++ (< 30% = ++++)”, the “293T.165 RET(KD: 658-1114 G810R) 6.0 hours (IP) [nM]” value was “++++ (< 50 nM = ++++)” and the half-maximal degradation concentration (DC50) was below 0.1 µM. Also, on RET (658-1114), the “293T.144 RET” value is “++++ (< 50 nM = ++++)”, the 50% degradation concentration (DC50) was below 0.05 µM and the maximal response (Emax) is below 30%.
As for `N#Cc1cnn2cc(-c3cnn(C4CCN(C(=O)CN5CCC(c6ccc(NC7CCC(=O)NC7=O)cc6F)CC5)CC4)c3)nc(-c3ccc(N4CCN(C(=O)Cc5ccc(F)cn5)CC4)nc3)c12` (stereo not shown) [Compound 51, 6-[1-[1-[2-[4-[4-[(2,6-dioxo-3-piperidyl)amino]-2-fluoro-phenyl]-1-piperidyl]acetyl]-4-piperidyl]pyrazol-4-yl]-4-[6-[4-[2-(5-fluoro-2-pyridyl)acetyl]piperazin-1-yl]-3-pyridyl]pyrazolo[1,5-a]pyrazine-3-carbonitrile], the maximal response (Emax) on RET(KD: 658-1114 G810R) was below 50%. In addition, the 50% degradation concentration (DC50) on RET(KD: 658-1114 G810R) (setting [1]) is below 0.1 µM. Further, on RET(KD: 658-1114 G810R) (HiBiT-Degradation), the “293T.165 RET(KD: 658-1114 G810R) 6.0 hours (Emax)” value is “+++ (<50% = +++)”, the “293T.165 RET(KD: 658-1114 G810R) 6.0 hours (IP) [nM]” value is “++++ (< 50 nM = ++++)” and the DC50 is below 0.1 µM. Besides, at RET (658-1114), the “293T.144 RET” value is “++++ (< 50 nM = ++++)”, the DC50 is below 0.05 µM and the Emax was below 30%.
Take `N#Cc1cnn2cc(-c3ccc(N4CCN(C(=O)CN5CCC(c6ccc(NC7CCC(=O)NC7=O)cc6F)CC5)CC4)cc3)nc(-c3ccc(N4CCN(C(=O)Cc5ccc(F)cn5)CC4)nc3)c12` (stereo not shown) [Compound 52, 6-[4-[4-[2-[4-[4-[(2,6-dioxo-3-piperidyl)amino]-2-fluoro-phenyl]-1-piperidyl]acetyl]piperazin-1-yl]phenyl]-4-[6-[4-[2-(5-fluoro-2-pyridyl)acetyl]piperazin-1-yl]-3-pyridyl]pyrazolo[1,5-a]pyrazine-3-carbonitrile]: the Emax at RET(KD: 658-1114 G810R) was below 50%. Besides, on RET(KD: 658-1114 G810R) (setting [1]), the DC50 was below 0.1 µM. Further, on RET(KD: 658-1114 G810R) (HiBiT-Degradation), the “293T.165 RET(KD: 658-1114 G810R) 6.0 hours (Emax)” value is “+++ (<50% = +++)”, the “293T.165 RET(KD: 658-1114 G810R) 6.0 hours (IP) [nM]” value was “++++ (< 50 nM = ++++)” and the DC50 is below 0.1 µM. Moreover, at RET (658-1114), the “293T.144 RET” value is “++++ (< 50 nM = ++++)”, the half-maximal degradation concentration (DC50) is below 0.05 µM and the Emax is below 30%.
Turning to `CCC1(C(=O)NC(C)C)CCN(c2ccc(-c3nc(-c4cnn(C5CCN(C(=O)CN6CCC(c7ccc(NC8CCC(=O)NC8=O)cc7F)CC6)CC5)c4)cn4ncc(C#N)c34)cn2)CC1` (stereo not shown) [Compound 53, 1-[5-[3-cyano-6-[1-[1-[2-[4-[4-[(2,6-dioxo-3-piperidyl)amino]-2-fluoro-phenyl]-1-piperidyl]acetyl]-4-piperidyl]pyrazol-4-yl]pyrazolo[1,5-a]pyrazin-4-yl]-2-pyridyl]-4-ethyl-N-isopropyl-piperidine-4-carboxamide], the Emax on RET(KD: 658-1114 G810R) was below 50%. For the same compound, the DC50 on RET(KD: 658-1114 G810R) (setting [1]) is below 0.05 µM. Further, at RET(KD: 658-1114 G810R) (HiBiT-Degradation), the “293T.165 RET(KD: 658-1114 G810R) 6.0 hours (Emax)” value is reported as “+++ (<50% = +++)”, the “293T.165 RET(KD: 658-1114 G810R) 6.0 hours (IP) [nM]” value is “++++ (< 50 nM = ++++)” and the DC50 was below 0.05 µM. In addition, at RET (658-1114), the “293T.144 RET” value was “++++ (< 50 nM = ++++)”, the DC50 is below 0.05 µM and the maximal response (Emax) was below 30%.

The values are drawn from US12661410B2, “Compounds for targeted degradation of RET” (C4 Therapeutics, Inc., priority 2020, dated 2026).
